According to paper PMC6271933, “Evaluation of the Toxicity of 5-Aryl-2-Aminoimidazole-Based Biofilm Inhibitors against Eukaryotic Cell Lines, Bone Cells and the Nematode Caenorhabditis elegans” (Molecules, 2014):
Values joined by “and” are separate entries in the source; they are usually repeats but may differ in a detail not shown here. Equal values may be shown once. “Also recorded” adds a separate entry of the source.

Tests used:
[1] = test system: calcium entry in PC12 cells; parameters: method as in PMID 15777959; settings: cited from earlier work
[2] = test system: Caenorhabditis elegans; parameters: method as in PMID 22292413; settings: cited from earlier work
[3] = test system: HaCaT keratinocyte cells; parameters: method as in PMID 22292413; settings: cited from earlier work
[4] = test system: human osteoblasts (OB); assay: Cytotoxicity against bone cells, trypan blue staining; assay type: cell-based; settings: for effect on proliferation and viability: after 48h and after 6 days of exposure
Protocol: (§1) The cytotoxicity of the compounds was measured on cell cultures of two cell types represented in bone tissue, namely human osteoblasts (OB) and human bone marrow-derived mesenchymal stem cells (MSC). These tests were conducted according to ISO 10993-5 cytotoxicity standard. The cells were seeded in a 96-well plate at a density of 5000 cells/cm^2 in cell culture media (Advanced DMEM, 10% FBS, 1× GlutaMAX, 0.05 mg/mL gentamicin) and allowed to attach overnight. […]
(§2) Trypan blue staining: the medium was removed from the wells, and 1/3 trypan blue in DMEM medium was added to the cells, incubated for 3 min, after which trypan blue was removed and DMEM medium was added to the wells. In each of four wells, two microscopy fields were counted for viable (transparent) and dead (blue) cells.

[5] = test system: human bone marrow-derived mesenchymal stem cells (MSC); assay: as above; assay type: cell-based; settings: for effect on proliferation and viability: after 48h and after 6 days of exposure
Protocol: as §1, §2

[6] = test system: S. Typhimurium biofilm; settings: concentration preventing biofilm formation (at 25 °C) by 50%; as previously reported ref 13, 14, 15, 16; read-out: BIC50 S. Typhimurium; cited from earlier work
[7] = test system: human osteoblasts (OB); assay: Metabolic activity of bone cells, MTT staining; assay type: cell-based; settings: 12.5 µM, 6 days exposure, MTT staining (results not shown)
Protocol: (§3) The cytotoxicity of the compounds was measured on cell cultures of two cell types represented in bone tissue, namely human osteoblasts (OB) and human bone marrow-derived mesenchymal stem cells (MSC). These tests were conducted according to ISO 10993-5 cytotoxicity standard. The cells were seeded in a 96-well plate at a density of 5000 cells/cm^2 in cell culture media (Advanced DMEM, 10% FBS, 1× GlutaMAX, 0.05 mg/mL gentamicin) and allowed to attach overnight. The next day the test compounds (12.5 μM) and controls were added to the cells (negative controls were cell culture medium and cell culture medium with 0.5% DMSO background, positive control was 0.05% phenol to show a cytotoxic effect) and incubated for 2h, 48h and 6 days and at each time-point the numbers of viable and dead cells were determined by trypan blue staining, and the metabolic activity was determined with MTT staining.
(§4) MTT: the medium was removed from the wells and 100 μL of medium, supplemented with 10% serum and 0.5 mg/mL MTT was added to the cells. The cells were incubated overnight at 37 °C and 5% CO2. The next day the medium with MTT was removed and 100 μL acidic isopropanol was added. The cells were then centrifuged at 2300 g and 50 μL of the supernatant was transferred to a new 96-well plate. The absorbance was measured at 570 nm and the background was measured at 660 nm. Four wells per condition were examined.

[8] = test system: human bone marrow-derived mesenchymal stem cells (MSC); assay: Metabolic activity of bone cells, MTT staining; assay type: cell-based; settings: 12.5 µM, 6 days exposure, MTT staining (results not shown)
Protocol: as §3, §4

[9] = test system: C. elegans; assay type: in vivo, Caenorhabditis elegans; settings: for C. elegans % survival at 25 µM: after 7 days relative to viability at day 0, mean of at least two repeats
Protocol: Eggs of a double mutant (glp-4Dsek-1D) of C. elegans were grown on NGM/OP50 agar plates (NGM agar plates on the surface inoculated with 100 µL of an overnight culture of OP50 Escherichia coli and stored at 4 °C until use) at 25 °C until all nematodes had reached the L4 stage. Worms were collected and washed with M9 buffer (3 g/L KH2PO4, 6 g/L Na2HPO4, 5 g/L NaCl, 1 mM MgSO4). For toxicity testing, 40 to 50 worms were suspended in 250 μL M9 (supplemented with 10 µg/mL cholesterol, 75 µg/mL ampicillin and 100 µg/mL kanamycin) buffer in each well of 24-well microtiter plates, in the presence or absence (0.5% DMSO control) of 25, 100 or 200 µM of the test compounds and grown for 7 days at 25 °C. The percentage survival of the worms in the presence or absence of anti-biofilm compounds was calculated after 7 days relative to their viability at day 0.

[10] = test system: P. aeruginosa biofilm; settings: concentration preventing biofilm formation (at 25 °C) by 50%; as previously reported ref 13, 14, 15, 16; read-out: BIC50 P. aeruginosa; cited from earlier work
[11] = test system: mesenchymal stem cells (MSC); assay: Calcium assay for osteogenic differentiation potential; assay type: cell-based, human; settings: 12.5 µM, 5 weeks (Figure 6) or 3 weeks (methods) of exposure
Protocol: (§5) MSC and OB were cultured in osteogenic medium for 3 and 5 weeks, respectively. The experimental groups included a positive solvent control (osteogenic medium with 0.5% DMSO background), a negative control (medium without osteogenic supplements) and treated samples (osteogenic medium, 0.5% DMSO background and 12.5 µM of test compound). Cell cultures were extracted by 5% trichloroacetic acid (500 μL per sample). O-Cresolphtalein complex was added (Calcium CPC LiquiColor Test®; Stanbio Laboratory, Boerne, TX, USA), and the calcium content was determined spectrophotometrically at 550 nm.
(§6) To determine the DNA content, cells were washed with PBS, and 200 μL of digestion buffer (10 mM Tris, 1 mM EDTA, 0.1% Triton X-100, 0.1 mg/mL proteinase K) was added. Samples were incubated in digestion buffer overnight at 56 °C. The supernatants were drawn off and PicoGreen® dye (Molecular Probes, Eugene, OR, USA) was added to the samples in 1:1 ratio and read in a fluorescent plate reader (excitation 485 nm and emission 528 nm). DNA values were used to normalize the calcium content. Four wells per condition were examined, and two samples from each well were taken for each assay.

[12] = test system: osteoblasts (OB); assay: as above; assay type: cell-based, human; settings: 12.5 µM, 3 weeks (Figure 6) or 5 weeks (methods) of exposure
Protocol: as §5, §6

[13] = test system: human cervix carcinoma (HeLa); assay: Cytostatic activity against tumor cell lines (cell number by Coulter counter); assay type: cell-based; settings: 96 h, concentration inhibiting cell proliferation by 50%, four days incubation, mean of three repeats
Protocol: (§7) The IC50 was defined as the compound concentration required to inhibit cell proliferation by 50%. The therapeutic index (TI) was calculated as the ratio of the compound concentration producing toxicity (IC50) to the concentration needed to exert the desired ‘therapeutic’ effect on biofilms of Salmonella and Pseudomonas, indicated by the BIC50 (dose needed to prevent biofilm formation by 50%). The higher the therapeutic index, the broader the safety window of the compound.
(§8) Murine leukemia (L1210), human T-lymphocyte (CEM) and human cervix carcinoma (HeLa) were suspended at 300,000–500,000 cells/mL of culture medium, and 100 µL of a cell suspension was added to 100 µL of an appropriate dilution of the test compounds in 200 µL-wells of 96-well microtiter plates. After incubation at 37 °C for two (L1210), three (CEM) or four (HeLa) days, the cell number was determined using a Coulter counter. The IC50 was defined as the compound concentration required to inhibit cell proliferation by 50%.

[14] = test system: human T-lymphocyte (CEM); assay: as above; assay type: cell-based; settings: 72 h, concentration inhibiting cell proliferation by 50%, three days incubation, mean of three repeats
Protocol: as §7, §8

[15] = test system: murine leukemia (L1210); assay: as above; assay type: cell-based; settings: Mus musculus, L1210, 48 h; concentration inhibiting cell proliferation by 50%; two days incubation; mean of three repeats
Protocol: as §7, §8

[16] = test system: GH4C1 rat pituitary and N2A mouse neuroblastoma cell lines; parameters: method as in PMID 18493660; settings: compared with parent molecule bromoageliferin; cited from earlier work
[17] = test system: epidermal growth factor-stimulated DNA synthesis in squamous cell tumors; settings: compared with naamidine A; cited from earlier work
[18] = 12.5 µM, 48h exposure, trypan blue

dibromoageliferin [2c]
calcium entry in PC12 cells [1]: inhibit the calcium entry

CCCCCCCCCCCCCNC(=O)CCCc1c[nH]c(N)n1 [2q]
toxicity against Caenorhabditis elegans [2]: lack toxicity | effect on HaCaT keratinocyte cells [3]: differential effect

C/C(=C\c1ccccc1)Cn1cc(CCCCCc2c[nH]c(N)n2)nn1 [2r]
toxicity against Caenorhabditis elegans [2]: lack toxicity | effect on HaCaT keratinocyte cells [3]: differential effect

Cn1c(C(=O)NCCCc2c[nH]c(N)n2)cc(Br)c1Br [2p]
toxicity against Caenorhabditis elegans [2]: lack toxicity | effect on HaCaT keratinocyte cells [3]: differential effect

CCCCNc1ncc(-c2ccc(Br)cc2)[nH]1 [compound 25]
effect on proliferation and viability ([4]; 12.5 µM, trypan blue): do not or only slightly reduce | survival of cells after 4 weeks of exposure [4]: allow survival | effect on proliferation and viability ([5]; 12.5 µM, trypan blue): do not or only slightly reduce | survival of cells after 4 weeks of exposure [5]: allow survival | IC50 [6]: 7.1 µM | effect on metabolic activity [7]: slightly enhance | effect on metabolic activity [8]: slightly enhance | C. elegans % survival at 25 µM [9]: 102.4% | effect on C. elegans survival at 100 µM ([9]; 7 days of exposure): none of the compounds significantly affect | effect on C. elegans survival at 200 µM ([9]; 200 µM, 7 days of exposure): do not significantly affect survival | IC50 [10]: 9.8 µM | calcium deposition compared to the solvent control (osteogenic differentiation potential) [11]: none of the compounds does negatively affect; also recorded: significantly induces | calcium deposition compared to the solvent control (osteogenic differentiation potential) [12]: none of the compounds does negatively affect | IC50 [13]: 50.7 µM | IC50 [14]: 493 µM | IC50 [15]: 126 µM

NC[C@H]1Cc2nc(N)[nH]c2C[C@@H]1CN [2n]
cytotoxicity in GH4C1 rat pituitary and N2A mouse neuroblastoma cell lines [16]: lack the cytotoxicity

Brc1ccc(-c2cnc(NCCCn3cc(C4CC4)nn3)[nH]2)cc1 [compound 40]
effect on proliferation and viability ([4]; 12.5 µM, trypan blue): do not or only slightly reduce | survival of cells after 4 weeks of exposure [4]: allow survival | effect on proliferation and viability ([5]; 12.5 µM, trypan blue): do not or only slightly reduce | survival of cells after 4 weeks of exposure [5]: allow survival | IC50 [6]: 2 µM | effect on metabolic activity [7]: slightly enhance | effect on metabolic activity [8]: slightly enhance | C. elegans % survival at 25 µM [9]: 82.6% | effect on C. elegans survival at 100 µM ([9]; 7 days of exposure): none of the compounds significantly affect | effect on C. elegans survival at 200 µM ([9]; 200 µM, 7 days of exposure): do not significantly affect survival | IC50 [10]: 72 µM and 71.6 µM | calcium deposition compared to the solvent control (osteogenic differentiation potential) [11]: none of the compounds does negatively affect | calcium deposition compared to the solvent control (osteogenic differentiation potential) [12]: none of the compounds does negatively affect | IC50 [13]: 67.1 µM | IC50 [14]: 33.6 µM | IC50 [15]: 43.9 µM

CC(C)CNc1ncc(-c2ccc(Cl)cc2)[nH]1 [compound 22]
effect on proliferation and viability ([4]; 12.5 µM, trypan blue): do not or only slightly reduce | survival of cells after 4 weeks of exposure [4]: allow survival | effect on proliferation and viability ([5]; 12.5 µM, trypan blue): do not or only slightly reduce | survival of cells after 4 weeks of exposure [5]: allow survival | IC50 [6]: 2 µM | effect on metabolic activity [7]: slightly enhance | effect on metabolic activity [8]: slightly enhance | C. elegans % survival at 25 µM [9]: 97.6% | effect on C. elegans survival at 100 µM ([9]; 7 days of exposure): none of the compounds significantly affect | effect on C. elegans survival at 200 µM ([9]; 200 µM, 7 days of exposure): do not significantly affect survival | IC50 [10]: 0.9 µM | calcium deposition compared to the solvent control (osteogenic differentiation potential) [11]: none of the compounds does negatively affect; also recorded: significantly (p < 0.05) induces | calcium deposition compared to the solvent control (osteogenic differentiation potential) [12]: none of the compounds does negatively affect; also recorded: significantly (p < 0.05) induces | IC50 [13]: 172 µM | IC50 [14]: 297 µM | IC50 [15]: 336 µM

Nc1nc([C@@H]2c3[nH]c(N)nc3C[C@H](CNC(=O)c3cc(Br)c[nH]3)[C@H]2CNC(=O)c2cc(Br)c(Br)[nH]2)c[nH]1 [2b, bromoageliferin]
calcium entry in PC12 cells [1]: inhibit the calcium entry

NC[C@@H]1Cc2[nH]c(N)nc2C[C@@H]1CN [2o]
cytotoxicity in GH4C1 rat pituitary and N2A mouse neuroblastoma cell lines [16]: lack the cytotoxicity

CCCCCCCCn1c(-c2ccc(Cl)cc2)cnc1N [compound 7]
reduction of proliferation as compared to the solvent control [4, 18]: > 70% | reduction of viability as compared to the solvent control [4, 18]: > 70% | reduction of proliferation as compared to the solvent control [5, 18]: > 70% | reduction of viability as compared to the solvent control [5, 18]: > 70% | IC50 [6]: 5.9 µM | reduction of metabolic activity as compared to the untreated controls [7]: > 80% | reduction of metabolic activity as compared to the untreated controls [8]: > 80% | C. elegans % survival at 25 µM [9]: 86.6% | effect on C. elegans survival at 100 µM ([9]; 7 days of exposure): none of the compounds significantly affect | inhibition of C. elegans survival at 200 µM ([9]; 200 µM, 7 days of exposure): more than 50% | IC50 [10]: 4 µM | IC50 [13]: 4.5 µM | IC50 [14]: 357 µM | IC50 [15]: 3.9 µM

COc1ccc(Cc2[nH]c(=N)n(C)c2Cc2ccc(O)cc2)cc1 [2m, naamine A]
ability to inhibit EGFR stimulated DNA synthesis [17]: markedly decreased ability to inhibit
